The test system of data set [1] is PC12-SOD1^G85R YFP cells co-treated with MG132. As to the kind of experiment: Viability screening against MG132-induced toxicity, CellTiter-Glo. The class given is cell-based. Conditions: PC12-SOD1^G85R YFP cells co-treated with MG132 and the compounds; read-out: PC12-SOD1^G85R EC50, in vitro viability screening (protection against MG132-induced toxicity). The protocol:
The HepG2 and HEK293 cells were cultured in DMEM media supplemented with 10 % FBS (heat-inactivated), 1 % Pen-strep, and L-glutamine and incubated at 37 °C in humidified air with 5 % CO2 until 85–90 % confluency. The PC12 Tet-Off-SOD1^G85R YFP cells were maintained as described in 4.2. On the day before the experiments, the cells were transferred to white bottom 96 well plates (Greiner cat. 655,083) at a concentration of 50,000 cells/100 μL of media in each well and incubated overnight at 37 °C. Stock solutions of the compounds (30 mM) in DMSO were prepared and then diluted in media to obtain the six final working solutions starting at 30 μM, and serial dilutions were obtained with the lowest concentration at 0.25 μM. The media were removed and fresh media containing the compounds or the vehicle DMSO (0.1 % v/v) were transferred to the plates containing HepG2 and HEK293 cells and the plates were incubated for 24 or 48 h at 37 °C. The PC12 Tet-Off-SOD1^G85R YFP cells compound treatment was performed as described in section 4.2 and using a 9-point 2-fold serial dilution of the compounds starting at 15 μM and the lowest concentration at 0.05 μM. After incubation, the plates were cooled to room temperature and 25 μL of CellTiter-Glo® solution was added to each well. The plates were loaded into a BioTek Synergy H1 MD plate reader and shaken for 2 min, stabilized for 10 min without shaking, and then the luminescence values were read for each well (luminescence integration step 1 ms). Wells containing media with the vehicle DMSO with or without cells were used as controls to represent, respectively, the maximum viability and the lowest viability (background signal) for the cytotoxicity studies with HepG2 and HEK293 cell lines. The viability values for the assay performed with the PC12 Tet-Off-SOD1^G85R YFP cells were normalised for the vehicle (0.1 % DMSO) and (−)-MG-132 alone treatments, which represented respectively the […] viability for the assay. […]
A general note: Cellular ATP, detected with luciferase, serves as a proxy for viable cell number.

In data set [2] the target is T1, P-gp (Homo sapiens, UniProt P08183).
T1 construct: host or cells: MDCK-MDR1 (Madin Darby canine kidney cells carrying the MDR1 gene)
T1 sequence (P08183 whole entry): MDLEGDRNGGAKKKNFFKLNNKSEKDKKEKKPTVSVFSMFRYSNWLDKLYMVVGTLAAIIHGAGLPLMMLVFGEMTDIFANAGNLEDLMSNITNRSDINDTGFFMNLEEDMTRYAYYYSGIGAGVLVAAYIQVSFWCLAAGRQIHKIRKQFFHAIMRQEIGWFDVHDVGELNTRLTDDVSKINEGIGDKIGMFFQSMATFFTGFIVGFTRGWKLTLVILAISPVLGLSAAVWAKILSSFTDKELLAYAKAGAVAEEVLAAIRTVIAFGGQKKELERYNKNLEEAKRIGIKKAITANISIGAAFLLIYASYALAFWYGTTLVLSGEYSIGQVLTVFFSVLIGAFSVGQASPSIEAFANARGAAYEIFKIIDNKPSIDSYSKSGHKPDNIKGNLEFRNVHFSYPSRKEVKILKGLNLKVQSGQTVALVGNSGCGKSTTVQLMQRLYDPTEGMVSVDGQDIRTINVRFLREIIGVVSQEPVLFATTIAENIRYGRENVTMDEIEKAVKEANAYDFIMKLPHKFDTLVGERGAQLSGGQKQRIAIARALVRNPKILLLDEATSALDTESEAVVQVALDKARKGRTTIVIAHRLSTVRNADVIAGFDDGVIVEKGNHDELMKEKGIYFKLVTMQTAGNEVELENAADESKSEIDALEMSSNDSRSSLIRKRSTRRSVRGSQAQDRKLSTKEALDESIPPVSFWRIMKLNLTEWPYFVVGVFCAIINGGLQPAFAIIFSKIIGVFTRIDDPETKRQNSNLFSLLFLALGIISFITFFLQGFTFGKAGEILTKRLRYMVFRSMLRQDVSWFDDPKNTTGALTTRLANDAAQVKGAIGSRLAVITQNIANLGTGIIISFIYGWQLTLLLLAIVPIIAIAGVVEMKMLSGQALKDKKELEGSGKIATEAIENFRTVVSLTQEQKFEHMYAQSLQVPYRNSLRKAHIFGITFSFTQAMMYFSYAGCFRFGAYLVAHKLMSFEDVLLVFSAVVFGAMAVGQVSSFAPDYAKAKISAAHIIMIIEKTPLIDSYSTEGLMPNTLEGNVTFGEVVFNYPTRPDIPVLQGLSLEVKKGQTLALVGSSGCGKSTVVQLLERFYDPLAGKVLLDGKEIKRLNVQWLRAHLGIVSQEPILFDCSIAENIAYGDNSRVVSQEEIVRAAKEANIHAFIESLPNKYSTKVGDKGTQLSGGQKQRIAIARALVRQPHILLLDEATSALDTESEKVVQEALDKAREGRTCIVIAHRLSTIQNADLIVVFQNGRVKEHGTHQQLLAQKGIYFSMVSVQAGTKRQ
As to the kind of experiment: MDCK-MDR1 bidirectional permeability / efflux assay. The class given is in vitro ADME. Conditions: MDCK-MDR1; for Papp A→B at 120 min / Papp B→A at 120 min / efflux ratio at 120 min: dog. The protocol: The assay was carried out at Sai Life Sciences. Stock solutions of 6, 20, assay controls loperamide, atenolol, and propanolol (4 and 20 mM), and P-gp inhibitor zosuquidar (10 mM) were prepared in DMSO. Then the stock solutions from each test compound were diluted in HBSS buffer containing 10 mM HEPES to obtain the assay working solutions without the P-gp inhibitor at 2 and 10 μM (0.1 % DMSO v/v). Into working solutions containing zosuquidar (5 μM) were individually diluted 6, 20, and loperamide to obtain working solutions containing the test compounds at 2 or 10 μM and zosuquidar at 5 μM.
The MDCK-MDR1 (Madin Darby canine kidney - Multidrug Resistance gene-1) cells were cultured in DMEM media supplemented with 10 % FBS and antibiotics. For transport studies, cells were seeded into PET trans filter membranes (Millipore #PSRP010R5; 1.0 μm pore size) at a density of 1.2 × 10^5 cells/well and colchicine was added to the flasks and plates according to their volume. After 24 h, the media were replaced by fresh media and then changed every 2 days over 8 days. The media were removed from the wells of the basal and apical compartments of the plates, and a solution of HBSS with or without zosuquidar (5 μM) was added to the apical (400 μL) and basal (800 μL) sides of the plates. The plates were pre-incubated at 37 °C for 30 min in humidified air with 5 % CO2. The TTER (Transepithelial-Transendothelial Electrical Resistance) value for each well was recorded (assay TEER >83 Ω.cm^2). The buffer was removed from both compartments, and for the apical to basal direction transport determination, the apical compartment was loaded with 400 μL of the working solutions of the tested compounds or controls (2 or 10 μM) in the presence or absence of zosuquidar (5 μM), and the basal compartment was loaded with 800 μL of HBSS (0.1 % DMSO v/v). For the basal to apical direction transport determination, the compartments were loaded in their reverse order. The assay was performed in duplicate for the two transport directions [apical to basolateral (A → B) and basolateral to apical (B → A)]. After 120 min, 100 μL samples from both the apical and basal sides of the plate were transferred to new 96-deep well plates, quenched with acetonitrile containing an internal standard, vortexed for 5 min, and then centrifuged at 4000 rpm for 10 min. The same procedure was used to prepare a 96-deep well plate containing non-assayed working solutions (t = 0 concentrations). After centrifugation, 100 μL of the supernatant of each well was transferred to a new 96-well plate, and the samples were analyzed by LC-MS/MS.
For each experiment, the apparent permeability (Papp) for each direction and the efflux ratio (ER) were determined by the equations: Papp(cm/s)=(dQ/dt)/A×Co
where dQ/dt is the rate of permeation of the tested compounds across the (0 and 120 min) after correcting for dilution; A is the area of the filter (0.7 cm^2); Co is the initial concentration of the compounds on the donor compartment.
Where P(B→A) is the apparent permeability of the compounds from the basal to the apical direction and P(A→B) is the apparent permeability from the apical to basal direction. Lucifer Yellow was used as a control of the assay to evaluate monolayer integrity after incubation with the working solutions of the compounds, and the results were validated if the permeability of Lucifer Yellow from the apical to the basal side after 1-h incubation was kept <2 %. The results are presented as an average of two independent experiments.

Each structure is given as a SMILES string.

As to `O=C1CC(=O)CC(/C=C/c2cc(C(F)(F)F)cc(C(F)(F)F)c2)C1` [Compound 6, (E)-5-(3,5-Bis(trifluoromethyl)styryl)cyclohexane-1,3-dione], in data set [1], the 50% effective concentration (EC50) (in general, the concentration that produces a half-maximal response) worked out at 1980 ± 250 nM. Besides, in data set [2], the “substrate for the P-gp transporter” value was “substrates”; the Papp A→B (as a rule, how fast a substance crosses the layer from the apical side) at 120 min amounted to 10.6 ± 1.28 ×10⁻⁶ cm/s; the basolateral-to-apical permeability (Papp B→A) (in general, how fast a substance crosses the layer from the basolateral side) at 120 min was determined as 24.31 ± 0.18 ×10⁻⁶ cm/s; the efflux ratio – broadly, a quotient of directional permeabilities that is used to spot active efflux – at 120 min came to 2.29.
As for `CC(C)(Oc1cc(C(F)(F)F)cc(C(F)(F)F)c1)C1CC(=O)CC(=O)C1` [Compound 20, 5-(2-(3,5-bis(trifluoromethyl)phenoxy)propan-2-yl)cyclohexane-1,3-dione], in data set [1], the EC50 amounted to 2470 ± 150 nM. Moreover, in data set [2], the “substrate for the P-gp transporter” value was “substrates”, the apical-to-basolateral permeability (Papp A→B) at 120 min stood at 5.82 ± 0.06 ×10⁻⁶ cm/s, the apparent permeability from basolateral to apical (Papp B→A) at 120 min was 14.7 ± 0.78 ×10⁻⁶ cm/s and the efflux ratio at 120 min is 2.53.

Values taken from paper PMC12648443, “Modifications of NU-9, a potent protein aggregation inhibitor. Properties and activity in a cellular model of amyotrophic lateral sclerosis” (Bioorganic chemistry, 2025).
